Source: PubChem BioAssay (NCI)
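Compound exposure: 48 hours, 5 concentrations, 96-well plates. At the GI50, growth is halved. TGI is the concentration that stops growth completely.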

Columns and labels:
Assay in all cases: NCI tumour cell line growth inhibition, 48 h
[1] = test system: NCI/ADR-RES ovarian
[2] = test system: BT-549 breast
[3] = test system: MDA-MB-231 breast
[4] = test system: MDA-N
[5] = test system: DMS 114 small cell lung
[6] = test system: KM20L2 colon
[7] = test system: XF 498 CNS
[8] = test system: HOP-18 NSCLC
[9] = test system: RXF-631 renal

Row | Structure (SMILES) | TGI [1] [µM] | TGI [2] [µM] | TGI [3] [µM] | TGI [4] [µM] | GI50 [1] [µM] | GI50 [2] [µM] | GI50 [3] [µM] | TGI [5] [µM] | TGI [6] [µM] | TGI [7] [µM] | TGI [8] [µM] | TGI [9] [µM]
1 | Cn1c2ccccc2c2ccc3c(c21)C(=O)c1ccccc1C3=O | 45.4 | 50.9 | 64.2 |  |  |  |  |  |  |  |  | 
2 | CC(C)(CO)N1CCN(C(=S)Nc2ccccc2)CC1 | > 100 | > 100 | > 100 | > 100 |  |  |  |  |  |  |  | 
3 | COc1ccc2c(c1)CCCN2c1c2ccccc2nc2ccccc12 | 0.771 | 6.28 | > 100 |  | 0.275 | 0.49 | 0.665 |  |  |  |  | 
4 | C[C@@H]1OC(=O)N2CCCC(=C3SCCCS3)C12 (stereo partly specified) |  |  |  |  |  |  |  | > 100 | > 100 | > 100 | > 100 | 
5 | O=C1c2cccc([N+](=O)[O-])c2C(=O)N1c1ncn[nH]1 | > 100 | 90 | > 100 | > 100 |  |  |  |  |  |  |  | 
6 | CN(C)CCNC(=O)c1cccc2ccc(-c3ccncc3)nc12 |  |  |  |  |  |  |  | 8.95 |  |  | 9.18 | 
7 | Cc1cc2c(cc1Cl)SC1=NN(C)S(=O)N1S2(=O)=O (stereo unspecified) | > 100 | > 100 | > 100 |  | > 100 | > 100 | > 100 |  |  |  |  | 
8 | CCCCCCCC(=O)OCC/C=C/C1OC1C1OC(=O)/C=C\C=C\c2nc(oc2C)/C=C(/C)CCC2OC2C1OC(=O)NC(C)=O (stereo unspecified) | 1.88 | 0.168 | 6.38 |  | 0.165 | 0.0466 | 0.0625 |  |  |  |  | 
9 | CC(SC(=S)N1CCOCC1)c1cc2oc(=O)n(C)c2cc1Cl (stereo unspecified) |  |  |  |  |  |  |  | > 100 | > 100 | > 100 | > 100 | 
10 | COc1cc[nH]c1/C=C1\C(=O)Nc2ccc(F)c(C#CC3(O)CCNCC3)c21 | 8.24 | 0.696 | 1 |  | 2.11 | 0.318 | 0.169 |  |  |  |  | 
11 | COc1ccc(N2C(=O)/C(=C/c3ccc(N(CCC#N)CCC#N)cc3C)N=C2c2cc([N+](=O)[O-])ccc2Cl)cc1 |  | > 100 | 49.4 | 4.98 |  |  |  | > 23.5 | 7.39 | 8.12 | > 100 | 
12 | O=C(O)C(CS)Nc1c2ccccc2nc2ccccc12 (stereo unspecified) |  |  |  |  |  |  |  | > 100 | > 100 | > 100 |  | 
13 | COc1ccc(NC(=O)CC(=O)N/N=C/c2ccc(N(CCC#N)S(C)(=O)=O)cc2)cc1 |  |  |  |  |  |  |  | > 100 | > 100 |  | > 100 | > 100
14 | CC(C)(C)c1cc(CCC(=O)Nc2ccc(Cl)cc2)nc(NC#N)n1 |  |  |  |  |  |  |  |  | > 100 |  | > 100 | 
15 | Cc1ccc(-c2nc3nc(-c4ccccc4)nc(N4CCCNCC4)c3o2)cc1 | 4.71 | 3.19 | 3.32 |  | 2.17 | 1.63 | 1.81 |  |  |  |  | 
16 | C/C(O)=C(\N=O)C(=O)Nc1ccc(Cl)cc1Cl |  |  |  |  |  |  |  | > 100 | > 100 |  | > 100 | 
17 | CCCC(=O)OCC1OC(n2cnc3c(=S)nc[nH]c32)C(OC(=O)CCC)C1OC(=O)CCC (stereo unspecified) | > 100 | > 100 | > 100 |  | 8.15 | 14.3 | 5.71 |  |  |  |  | 
18 | CC/C=C\C[C@H](F)C/C=C1/C(=O)C=C[C@@H]1C/C=C\CCCC(=O)O | > 32.5 | 12.5 | > 32.5 |  | 6.78 | 6.07 | 12.7 |  |  |  |  | 

Row | Structure (SMILES) | TGI [1] [µM] | TGI [2] [µM] | TGI [3] [µM] | TGI [4] [µM] | GI50 [1] [µM] | GI50 [2] [µM] | GI50 [3] [µM] | TGI [5] [µM] | TGI [6] [µM] | TGI [7] [µM] | TGI [8] [µM] | TGI [9] [µM]
19 | Nc1nc2c(nnn2C2CC(O)C(CO)O2)c(=O)[nH]1 (stereo unspecified) | > 100 | > 59.9 | > 100 |  | 3.08 | 4.14 | 5.41 |  |  |  |  | 
20 | Nc1nc(N(Cc2ccccc2)c2ccccc2)c2cn[nH]c2n1 |  | > 100 | > 100 |  |  | 3.95 | 6.41 |  |  |  |  | 
21 | CCOC(=O)/C(=C\c1ccccc1)C(=O)O |  |  |  |  |  |  |  | > 100 | > 100 | > 100 |  | 
22 | O=C1CCC(N2C(=O)c3ccccc3C2=O)C(=O)N1CO (stereo unspecified) | > 100 | > 100 | > 100 |  | > 100 | 52.6 | > 100 |  |  |  |  | 
23 | CCOC1Oc2ccc(C)cc2C(=O)/C1=C\Nc1ccc(C(N)=O)cc1 (stereo unspecified) | 44.7 | 62.9 | 36 |  | 17.7 | 15.5 | 16.7 |  |  |  |  | 
24 | O=C(O)CCSC(=O)Nc1ccc([N+](=O)[O-])cc1 |  |  |  |  |  |  |  | > 100 |  |  |  | 
25 | CC[C@@]1(c2ccccc2)C2=C(CC(C)(C)CC2=O)Nc2[nH]ncc21 | > 100 | > 100 | > 100 |  | > 100 | > 100 | > 100 |  |  |  |  | 
26 | O=C(CCN(C(=O)O)S(=O)(=O)c1ccc(NC(=O)c2ccccc2)cc1)NC1CCCCC1 |  |  |  |  |  |  |  | > 100 | > 100 | > 100 | > 100 | 
27 | COc1cc2ncn(-c3cc(OCc4cccs4)c(C(N)=O)s3)c2cc1OC | > 25 | > 25 | > 21.2 |  | 2.22 | 4.67 | 2.21 |  |  |  |  | 
28 | CCN(CC)C(c1ccc(N(C)C)cc1)C(c1ccc(N(C)C)cc1)N(CC)CC (stereo unspecified) |  |  |  |  |  |  |  | 40.6 | > 73 |  |  | > 73
29 | COc1ccc2nc3c(C(=O)NCCN(C)C)cccc3nc2c1 |  |  |  |  |  |  |  | 20.2 |  |  | > 100 | 
30 | CCOCC(=O)N[C@H]1CCc2cc(OC)c(OC)c(OC)c2-c2ccc(OC)c(=O)cc21 |  |  | > 100 | < 0.0196 |  |  |  | 0.0289 | 0.0375 | > 60 | > 100 | 
31 | O=C1Nc2ccccc2C1(c1ccc(O)cc1)c1ccc(O)cc1 | > 100 | 0.541 | 48.7 |  | 0.982 | 0.0625 | 20.3 |  |  |  |  | 
32 | COc1cc(C(=O)CBr)c(OC)cc1C | > 100 | > 100 | > 100 | > 100 |  |  |  |  |  |  |  | 
33 | C=C(C[C@](O)(C(=O)/C=C/c1ccc(Cl)cc1)C(=O)OC)c1ccccc1 | 17.1 | 10.7 |  |  | 3.11 | 2.86 |  |  |  |  |  | 
34 | O=C(Nc1ccncc1)C(=O)c1cn(S(=O)(=O)c2cccc(F)c2)c2ccccc12 | 4.66 | 86.8 | > 100 |  | 1.16 | 2.29 | 10.8 |  |  |  |  | 
35 | CCc1ccccc1NC(=O)C1=C(C)NC(C)=C(C(=O)Nc2ccccc2CC)C1c1ccc2c(c1)OCO2 |  |  |  |  |  |  |  | > 100 |  | 70.4 |  | 
36 | Nc1c(-c2ccc(Cl)cc2)[n+]([O-])c2ccccc2[n+]1[O-] |  |  |  |  |  |  |  | > 100 | > 100 | > 100 | > 100 | 
